In ChEMBL document CHEMBL3137667, “[Drug-induced liver injury; fourteenth updated edition of the bibliographic database of liver injuries and related drugs]” (Gastroenterol Clin Biol, 2004):

How the values were obtained:
[1] = human
[2] = human; remark: listed apart in the source
[3] = human, serum
[4] = human; remark: listed apart in the source
[5] = human; remark: listed apart in the source
[6] = Highest frequency of moderate liver toxicity observed during clinical trials, expressed as a percentage. [column '% BIOL' in source]; settings: human
[7] = human; remark: listed apart in the source
[8] = human, serum; remark: listed apart in the source
[9] = human; remark: listed apart in the source
[10] = Highest frequency of acute liver toxicity observed during clinical trials, expressed as a percentage. [column '% AIGUE' in source]; settings: human
[11] = human, serum, 4383 h
[12] = human; remark: listed apart in the source
[13] = human; remark: listed apart in the source
[14] = Times to onset, minimal and maximal, observed in the indexed observations. [column 'DELAI' in source]; settings: human
[15] = human; remark: listed apart in the source
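Throughout, for Hepatotoxicity (association with vascular disease): count of indexed literature references reporting vascular liver injury in humans, e.g. peliosis hepatitis, hepatic veno-occlusive disease or Budd-Chiari syndrome.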
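Throughout, for Hepatotoxicity (benign tumour): value is a count of indexed literature references citing a benign tumour confirmed by histopathology.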
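Throughout, for Hepatotoxicity (choleostasis): human cholestatic liver injury, shown by histopathology or by peak ALT or AST elevation over alkaline phosphatase ratio below 2, value counts indexed literature reports.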
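Throughout, for Hepatotoxicity (chronic liver disease): chronic liver injury confirmed by histopathology or persistently raised serum aminotransferase activity beyond 6 months, value given as the count of indexed literature references.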
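Throughout, for Hepatotoxicity (cirrhosis): value is a count of indexed literature references reporting cirrhosis confirmed by histopathology.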
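Throughout, for Hepatotoxicity (cytolytic): human cytolytic liver injury, shown by histopathology or by a ratio above 5 of peak ALT or AST elevation to alkaline phosphatase elevation, value counts indexed references.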
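Throughout, for Hepatotoxicity (granulomatous hepatitis): value is a count of indexed literature references reporting granulomatous liver disease confirmed by histopathology.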
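Throughout, for Hepatotoxicity (malignant tumour): malignant tumour confirmed by histopathology, value gives the count of indexed literature references reporting it.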
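Throughout, for Hepatotoxicity (severe hepatitis): human clinical data: severe hepatitis, meaning potentially life-threatening liver failure or clinically observed cases, the value counts how many indexed literature references report it.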
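Throughout, for Hepatotoxicity (steatosis): steatosis confirmed by histopathology, value is the count of indexed references.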

Row | SMILES | Hepatotoxicity (steatosis) [1] | Hepatotoxicity (benign tumour) [2] | Hepatotoxicity (acute) [3] | Hepatotoxicity (choleostasis) [4] | Hepatotoxicity (malignant tumour) [5] | Hepatotoxicity (moderate) [6] | Hepatotoxicity (severe hepatitis) [7] | Hepatotoxicity (moderate) [8] | Hepatotoxicity (association with vascular disease) [9] | Hepatotoxicity (acute) [10] | Hepatotoxicity (chronic liver disease) [11] | Hepatotoxicity (cirrhosis) [12] | Hepatotoxicity (cytolytic) [13] | Hepatotoxicity (time to onset) [14] | Hepatotoxicity (granulomatous hepatitis) [15] | other results
1 | O=C(NCCN1CCOCC1)c1ccc(Cl)cc1 [MOCLOBEMIDE] | 0 | 0 | 1 | 1 | 0 | 0% | 1 | 1 | 0 | 0% | 0 | 0 | 0 | 1 week - 9 days | 0 | 
2 | NC(=O)OCC(COC(N)=O)c1ccccc1 [FELBAMATE] | 0 | 0 | 4 | 0 | 0 | 7.1% | 3 | 4 | 0 | 0% | 0 | 0 | 2 | 13 days - 6 months | 0 | 
3 | CC(=O)[C@H]1CC[C@H]2[C@@H]3CC[C@H]4C[C@H](O)CC[C@]4(C)[C@H]3C(=O)C[C@]12C.C[C@]12CC[C@@H](O)C[C@@H]1CC[C@H]1[C@@H]3CC[C@H](C(=O)CO)[C@@]3(C)CC(=O)[C@@H]12 | 0 | 0 | 0 | 0 | 0 | 15% | 0 | 1 | 0 | 0% | 0 | 0 | 0 | 3 days - 5 days | 0 | 
4 | O=C(Oc1ccccc1C(=O)O)c1ccccc1O [SALSALATE] | 0 | 0 | 2 | 0 | 0 | 15% | 0 | 1 | 0 | 5% | 0 | 0 | 2 | 1 day - 2 weeks | 0 | 
5 | CN1C(C(=O)Nc2ccccn2)=C(O)c2sccc2S1(=O)=O [TENOXICAM] | 0 | 0 | 3 |  | 0 |  |  | 8 | 0 |  | 0 | 0 |  | 3 days - 5 days |  | Hepatotoxicity (choleostasis) ([4]; Liver): 2; Hepatotoxicity (moderate) ([6]; Liver): 27%; Hepatotoxicity (severe hepatitis) ([7]; Liver): 0; Hepatotoxicity (acute) ([10]; Liver): 0%; Hepatotoxicity (cytolytic) ([13]; Liver): 2; Hepatotoxicity (granulomatous hepatitis) ([15]; Liver): 0
6 | CCNC1=Nc2ccc(Cl)cc2C(C)(c2ccccc2)O1 (stereo not given) [ETIFOXINE] | 0 | 0 | 1 | 0 | 0 | 0% | 0 | 0 | 0 | 0% | 0 | 0 | 1 | 11 days | 0 | 
7 | CCN(CC)CCOC(=O)[C@@H](Cc1cccc2ccccc12)C[C@@H]1CCCO1 [NAFTIDROFURYL] | 0 | 0 | 3 | 2 | 0 | 0% | 0 | 0 | 0 | 0% | 0 | 0 | 2 | 7 weeks - 4.3 months | 1 | 
8 | CC1(C)S[C@@H]2[C@H](NC(=O)[C@H](NC(=O)N3CCN(S(C)(=O)=O)C3=O)c3ccccc3)C(=O)N2[C@H]1C(=O)O [MEZLOCILLIN] | 0 | 0 | 1 |  | 0 |  |  | 6 | 0 |  | 0 | 0 |  | 2 weeks - 3 weeks |  | Hepatotoxicity (choleostasis) ([4]; Liver): 1; Hepatotoxicity (moderate) ([6]; Liver): 25%; Hepatotoxicity (severe hepatitis) ([7]; Liver): 0; Hepatotoxicity (acute) ([10]; Liver): 0%; Hepatotoxicity (cytolytic) ([13]; Liver): 0; Hepatotoxicity (granulomatous hepatitis) ([15]; Liver): 0
9 | CC(C)=CCC1C(=O)N(c2ccccc2)N(c2ccccc2)C1=O [FEPRAZONE] | 0 | 0 | 2 | 2 | 0 | 0% | 0 | 1 | 0 | 0% | 0 | 0 | 2 | 2 weeks - 1 month | 1 | 
10 | C=C1c2cccc(O)c2C(=O)C2=C(O)[C@]3(O)C(=O)C(C(N)=O)=C(O)[C@@H](N(C)C)[C@@H]3[C@@H](O)[C@H]12 [METHACYCLINE] | 0 | 0 | 1 | 0 | 0 | 0% | 0 | 0 | 0 | 0% | 0 | 0 | 1 | 7 months - 1 year | 0 | 
11 | O=NN(CCCl)C(=O)N[C@H]1C(O)O[C@H](CO)[C@@H](O)[C@@H]1O (stereo not given in full) [CHLOROZOTOCIN] | 0 | 0 | 2 | 1 | 0 | 33% | 0 | 2 | 0 | 0% | 0 | 0 | 1 | 1.5 months | 0 | 
